Read-outs that look alike come from different tables or passages of the source.
Columns and labels:
Format in all cases: binding
[1] = molecular target: T1, HeLa cell extract proteins (Homo sapiens, UniProt P53611)
T1 construct: endogenous in cells; host or cells: HeLa cell extract
T1 sequence (P53611 1-331): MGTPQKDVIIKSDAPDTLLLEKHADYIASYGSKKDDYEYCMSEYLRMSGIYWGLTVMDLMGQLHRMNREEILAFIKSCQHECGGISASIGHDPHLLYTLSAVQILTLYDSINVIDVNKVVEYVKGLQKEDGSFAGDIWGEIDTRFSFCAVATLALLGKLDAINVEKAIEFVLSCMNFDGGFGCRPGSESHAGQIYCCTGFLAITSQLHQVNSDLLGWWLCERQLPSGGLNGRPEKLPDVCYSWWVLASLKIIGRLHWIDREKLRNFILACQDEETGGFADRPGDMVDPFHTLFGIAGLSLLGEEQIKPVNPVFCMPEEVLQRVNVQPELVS

[2] = molecular target: T2, HeLa cell extract proteins (Homo sapiens, UniProt P24863)
T2 construct: endogenous in cells; host or cells: HeLa cell extract
T2 sequence (P24863 1-283): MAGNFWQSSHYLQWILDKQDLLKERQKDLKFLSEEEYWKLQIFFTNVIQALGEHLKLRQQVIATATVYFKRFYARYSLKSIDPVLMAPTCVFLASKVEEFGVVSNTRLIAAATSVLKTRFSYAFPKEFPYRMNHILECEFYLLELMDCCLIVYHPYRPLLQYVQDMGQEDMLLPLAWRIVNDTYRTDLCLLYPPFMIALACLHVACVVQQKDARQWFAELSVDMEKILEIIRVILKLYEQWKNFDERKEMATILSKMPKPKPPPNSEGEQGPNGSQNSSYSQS

[3] = molecular target: T3, HeLa cell extract proteins (Homo sapiens, UniProt Q9HAV4)
T3 construct: endogenous in cells; host or cells: HeLa cell extract
T3 sequence (Q9HAV4 1-1204): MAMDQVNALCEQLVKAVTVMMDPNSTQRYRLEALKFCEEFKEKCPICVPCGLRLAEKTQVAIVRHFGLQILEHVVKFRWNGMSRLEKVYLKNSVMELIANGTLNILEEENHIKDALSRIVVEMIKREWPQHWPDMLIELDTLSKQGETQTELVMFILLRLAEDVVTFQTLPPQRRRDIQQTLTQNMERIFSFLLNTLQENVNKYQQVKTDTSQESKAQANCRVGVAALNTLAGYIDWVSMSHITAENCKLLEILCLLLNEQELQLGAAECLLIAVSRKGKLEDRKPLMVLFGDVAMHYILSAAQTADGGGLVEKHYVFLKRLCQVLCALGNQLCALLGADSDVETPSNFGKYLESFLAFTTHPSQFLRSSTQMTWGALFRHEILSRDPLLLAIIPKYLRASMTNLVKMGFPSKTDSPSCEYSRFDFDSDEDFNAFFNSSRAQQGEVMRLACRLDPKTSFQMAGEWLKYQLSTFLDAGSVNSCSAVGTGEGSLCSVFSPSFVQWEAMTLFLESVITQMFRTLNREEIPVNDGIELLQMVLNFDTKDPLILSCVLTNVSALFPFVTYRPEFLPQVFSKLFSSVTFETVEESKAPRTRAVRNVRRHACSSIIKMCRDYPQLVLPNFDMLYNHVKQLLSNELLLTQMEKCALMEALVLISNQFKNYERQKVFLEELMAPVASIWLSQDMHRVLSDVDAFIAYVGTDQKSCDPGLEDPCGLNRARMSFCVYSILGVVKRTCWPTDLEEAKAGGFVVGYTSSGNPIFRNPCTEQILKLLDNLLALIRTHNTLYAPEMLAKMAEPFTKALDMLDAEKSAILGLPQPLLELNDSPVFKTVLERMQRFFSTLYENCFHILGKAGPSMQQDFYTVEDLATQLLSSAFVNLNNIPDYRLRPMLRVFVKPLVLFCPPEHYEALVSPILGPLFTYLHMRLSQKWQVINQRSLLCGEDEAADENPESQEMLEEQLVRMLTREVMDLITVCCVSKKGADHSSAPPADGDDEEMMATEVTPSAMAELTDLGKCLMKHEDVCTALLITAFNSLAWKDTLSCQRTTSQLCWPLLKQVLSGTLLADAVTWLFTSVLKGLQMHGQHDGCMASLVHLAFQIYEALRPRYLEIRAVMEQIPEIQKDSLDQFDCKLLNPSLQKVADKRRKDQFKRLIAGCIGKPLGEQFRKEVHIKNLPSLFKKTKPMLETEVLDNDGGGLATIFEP

[4] = molecular target: T4, HeLa cell extract proteins (Homo sapiens, UniProt Q05048)
T4 construct: endogenous in cells; host or cells: HeLa cell extract
T4 sequence (Q05048 1-431): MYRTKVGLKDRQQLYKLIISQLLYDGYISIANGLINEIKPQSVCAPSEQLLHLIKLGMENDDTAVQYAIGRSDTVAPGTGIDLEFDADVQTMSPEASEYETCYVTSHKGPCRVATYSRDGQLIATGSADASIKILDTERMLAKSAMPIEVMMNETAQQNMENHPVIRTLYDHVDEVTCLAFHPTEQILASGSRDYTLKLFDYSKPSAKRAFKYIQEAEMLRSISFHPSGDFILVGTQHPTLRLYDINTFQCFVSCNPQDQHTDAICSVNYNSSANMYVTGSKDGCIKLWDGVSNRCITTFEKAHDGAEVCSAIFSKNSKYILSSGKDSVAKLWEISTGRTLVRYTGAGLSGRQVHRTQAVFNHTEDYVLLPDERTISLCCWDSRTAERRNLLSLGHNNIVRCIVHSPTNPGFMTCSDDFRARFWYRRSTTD

[5] = molecular target: T5, HeLa cell extract proteins (Homo sapiens, UniProt Q14204)
T5 construct: endogenous in cells; host or cells: HeLa cell extract
T5 sequence (Q14204 whole entry): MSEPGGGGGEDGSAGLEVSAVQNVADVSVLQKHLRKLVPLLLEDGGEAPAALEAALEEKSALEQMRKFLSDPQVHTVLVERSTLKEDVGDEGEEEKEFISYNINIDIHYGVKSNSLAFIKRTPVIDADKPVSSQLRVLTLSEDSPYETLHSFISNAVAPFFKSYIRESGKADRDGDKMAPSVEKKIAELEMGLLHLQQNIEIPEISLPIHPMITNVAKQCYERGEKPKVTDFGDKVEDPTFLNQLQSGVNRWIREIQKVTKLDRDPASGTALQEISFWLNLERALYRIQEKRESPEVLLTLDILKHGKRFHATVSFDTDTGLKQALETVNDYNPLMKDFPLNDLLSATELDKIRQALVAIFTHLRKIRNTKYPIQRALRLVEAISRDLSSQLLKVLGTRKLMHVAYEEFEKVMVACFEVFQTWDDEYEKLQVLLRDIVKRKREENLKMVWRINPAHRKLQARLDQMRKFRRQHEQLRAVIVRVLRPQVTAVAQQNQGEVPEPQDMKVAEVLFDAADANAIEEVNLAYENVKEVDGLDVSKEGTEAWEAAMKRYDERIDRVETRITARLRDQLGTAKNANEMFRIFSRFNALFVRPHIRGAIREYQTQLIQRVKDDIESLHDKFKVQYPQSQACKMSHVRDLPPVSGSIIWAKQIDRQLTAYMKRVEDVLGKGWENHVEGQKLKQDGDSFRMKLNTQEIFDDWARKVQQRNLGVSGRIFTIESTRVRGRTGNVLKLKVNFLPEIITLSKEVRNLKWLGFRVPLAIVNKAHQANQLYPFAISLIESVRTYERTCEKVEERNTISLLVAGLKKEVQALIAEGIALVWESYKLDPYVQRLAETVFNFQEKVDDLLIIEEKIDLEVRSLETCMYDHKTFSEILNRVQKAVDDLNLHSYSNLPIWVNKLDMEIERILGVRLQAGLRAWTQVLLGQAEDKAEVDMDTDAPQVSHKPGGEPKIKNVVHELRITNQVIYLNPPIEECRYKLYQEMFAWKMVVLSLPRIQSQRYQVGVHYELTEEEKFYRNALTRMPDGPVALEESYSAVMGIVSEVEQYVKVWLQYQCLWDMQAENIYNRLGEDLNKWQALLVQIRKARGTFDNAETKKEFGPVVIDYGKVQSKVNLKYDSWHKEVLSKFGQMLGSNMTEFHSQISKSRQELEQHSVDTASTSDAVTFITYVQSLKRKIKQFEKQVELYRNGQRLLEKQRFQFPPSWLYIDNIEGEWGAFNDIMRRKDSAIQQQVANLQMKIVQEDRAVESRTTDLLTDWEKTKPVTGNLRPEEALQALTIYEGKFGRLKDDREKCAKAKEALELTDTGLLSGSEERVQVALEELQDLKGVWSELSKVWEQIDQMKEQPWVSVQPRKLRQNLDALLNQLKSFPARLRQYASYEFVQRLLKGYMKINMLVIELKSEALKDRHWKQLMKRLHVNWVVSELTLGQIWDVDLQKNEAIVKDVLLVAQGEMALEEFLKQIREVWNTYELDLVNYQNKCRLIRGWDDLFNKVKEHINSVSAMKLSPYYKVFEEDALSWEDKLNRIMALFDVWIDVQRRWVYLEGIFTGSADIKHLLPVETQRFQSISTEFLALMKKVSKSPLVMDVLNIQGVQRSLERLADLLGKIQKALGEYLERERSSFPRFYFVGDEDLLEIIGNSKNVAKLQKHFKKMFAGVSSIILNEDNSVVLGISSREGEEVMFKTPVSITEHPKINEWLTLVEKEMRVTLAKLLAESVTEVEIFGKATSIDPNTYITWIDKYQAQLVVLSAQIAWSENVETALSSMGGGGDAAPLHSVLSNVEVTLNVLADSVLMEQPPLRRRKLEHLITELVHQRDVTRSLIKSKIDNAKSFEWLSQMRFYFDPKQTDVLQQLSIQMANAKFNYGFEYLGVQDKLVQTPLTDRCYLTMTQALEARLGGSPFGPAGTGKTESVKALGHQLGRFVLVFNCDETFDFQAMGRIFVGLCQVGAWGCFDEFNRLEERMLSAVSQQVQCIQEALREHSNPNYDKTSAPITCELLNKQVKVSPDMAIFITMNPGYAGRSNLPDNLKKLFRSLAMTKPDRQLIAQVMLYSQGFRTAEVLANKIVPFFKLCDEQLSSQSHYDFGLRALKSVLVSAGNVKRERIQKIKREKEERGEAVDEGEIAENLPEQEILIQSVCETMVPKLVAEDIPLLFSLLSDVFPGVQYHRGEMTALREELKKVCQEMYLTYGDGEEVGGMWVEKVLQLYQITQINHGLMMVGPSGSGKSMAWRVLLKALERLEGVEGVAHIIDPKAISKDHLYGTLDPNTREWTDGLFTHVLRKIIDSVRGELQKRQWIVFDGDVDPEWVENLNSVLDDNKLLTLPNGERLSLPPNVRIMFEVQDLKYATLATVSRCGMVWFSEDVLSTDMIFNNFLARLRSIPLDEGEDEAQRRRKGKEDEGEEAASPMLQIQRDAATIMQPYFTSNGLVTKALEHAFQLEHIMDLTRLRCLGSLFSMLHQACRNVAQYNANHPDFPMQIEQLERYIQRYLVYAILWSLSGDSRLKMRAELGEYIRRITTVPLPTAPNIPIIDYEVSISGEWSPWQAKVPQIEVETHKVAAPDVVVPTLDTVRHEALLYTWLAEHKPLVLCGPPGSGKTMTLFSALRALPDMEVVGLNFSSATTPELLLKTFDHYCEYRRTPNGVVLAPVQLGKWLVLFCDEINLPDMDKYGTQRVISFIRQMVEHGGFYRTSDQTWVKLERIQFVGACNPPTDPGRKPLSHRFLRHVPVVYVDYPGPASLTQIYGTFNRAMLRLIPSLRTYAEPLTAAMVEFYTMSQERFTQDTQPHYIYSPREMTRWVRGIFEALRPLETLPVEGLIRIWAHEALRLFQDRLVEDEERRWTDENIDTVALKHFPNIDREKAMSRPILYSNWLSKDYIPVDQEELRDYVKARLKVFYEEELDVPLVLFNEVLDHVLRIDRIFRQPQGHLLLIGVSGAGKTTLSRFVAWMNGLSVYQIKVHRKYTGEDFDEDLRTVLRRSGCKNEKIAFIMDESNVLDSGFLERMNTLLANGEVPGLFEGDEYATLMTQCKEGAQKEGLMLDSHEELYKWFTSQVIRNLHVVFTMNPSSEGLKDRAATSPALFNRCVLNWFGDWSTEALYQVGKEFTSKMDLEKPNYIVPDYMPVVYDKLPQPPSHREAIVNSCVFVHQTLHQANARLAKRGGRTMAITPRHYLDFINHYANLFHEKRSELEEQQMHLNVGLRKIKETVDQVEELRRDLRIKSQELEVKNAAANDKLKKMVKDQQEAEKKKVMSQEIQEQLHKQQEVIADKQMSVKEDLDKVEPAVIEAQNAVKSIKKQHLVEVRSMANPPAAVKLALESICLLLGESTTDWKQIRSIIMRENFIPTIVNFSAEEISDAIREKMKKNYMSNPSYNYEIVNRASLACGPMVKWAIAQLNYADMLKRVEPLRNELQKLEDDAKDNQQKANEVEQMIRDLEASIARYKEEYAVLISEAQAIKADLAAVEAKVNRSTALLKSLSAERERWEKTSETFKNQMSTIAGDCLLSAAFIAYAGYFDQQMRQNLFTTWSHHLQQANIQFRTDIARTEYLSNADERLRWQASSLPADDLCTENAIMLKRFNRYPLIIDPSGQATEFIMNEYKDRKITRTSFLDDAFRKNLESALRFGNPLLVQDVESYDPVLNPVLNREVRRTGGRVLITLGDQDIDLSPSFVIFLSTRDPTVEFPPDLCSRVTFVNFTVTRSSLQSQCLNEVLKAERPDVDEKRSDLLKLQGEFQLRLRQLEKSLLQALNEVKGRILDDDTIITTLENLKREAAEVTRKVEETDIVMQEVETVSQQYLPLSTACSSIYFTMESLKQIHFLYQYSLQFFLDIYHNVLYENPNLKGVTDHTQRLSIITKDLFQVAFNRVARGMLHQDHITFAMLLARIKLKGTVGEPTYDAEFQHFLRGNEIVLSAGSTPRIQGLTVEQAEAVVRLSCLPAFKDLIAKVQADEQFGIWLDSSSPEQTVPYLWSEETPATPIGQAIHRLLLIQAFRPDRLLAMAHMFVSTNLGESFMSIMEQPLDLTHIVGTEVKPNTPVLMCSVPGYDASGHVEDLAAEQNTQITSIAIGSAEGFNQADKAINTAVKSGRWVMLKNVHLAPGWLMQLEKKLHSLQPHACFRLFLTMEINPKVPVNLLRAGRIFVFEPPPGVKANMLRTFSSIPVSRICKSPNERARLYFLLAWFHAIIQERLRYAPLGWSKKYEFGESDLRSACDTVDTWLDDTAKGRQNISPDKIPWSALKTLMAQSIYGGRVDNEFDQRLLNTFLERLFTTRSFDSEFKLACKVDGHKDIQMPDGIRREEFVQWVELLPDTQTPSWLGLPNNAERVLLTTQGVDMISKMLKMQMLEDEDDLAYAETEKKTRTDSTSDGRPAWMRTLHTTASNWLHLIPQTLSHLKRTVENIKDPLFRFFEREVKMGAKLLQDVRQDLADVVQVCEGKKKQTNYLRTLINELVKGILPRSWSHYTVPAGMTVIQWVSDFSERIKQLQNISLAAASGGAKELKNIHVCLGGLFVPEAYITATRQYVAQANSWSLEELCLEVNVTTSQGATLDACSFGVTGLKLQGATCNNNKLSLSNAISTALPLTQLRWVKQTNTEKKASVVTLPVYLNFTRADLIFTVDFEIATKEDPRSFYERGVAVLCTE

[6] = molecular target: T6, HeLa cell extract proteins (Homo sapiens, UniProt P62258)
T6 construct: endogenous in cells; host or cells: HeLa cell extract
T6 sequence (P62258 1-255): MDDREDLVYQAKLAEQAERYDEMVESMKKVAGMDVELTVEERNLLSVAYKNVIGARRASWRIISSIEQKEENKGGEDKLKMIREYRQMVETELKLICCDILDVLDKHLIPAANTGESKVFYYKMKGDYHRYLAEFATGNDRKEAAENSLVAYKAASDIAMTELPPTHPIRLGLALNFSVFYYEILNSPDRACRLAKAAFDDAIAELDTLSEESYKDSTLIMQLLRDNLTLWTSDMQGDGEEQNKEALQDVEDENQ

Nc1nc2cccc(-c3ccccc3)c2n1Cc1ccc(Cl)c(Cl)c1 [compound 3] was tested, and the “fold changes relative to vehicle control” value ([1]; protein RABGGTB, HeLa) was 1.06, the “fold changes relative to vehicle control” value ([2]; captured protein CCNC, HeLa) was 0.93 and the “fold changes relative to vehicle control” value ([3]; HeLa, protein XPO5) was 1.1. For the same compound, the “fold changes relative to vehicle control” value ([4]; HeLa, protein CSTF1) was 0.98, the “fold changes relative to vehicle control” value ([5]; protein DYNC1H1, HeLa) was 1.07 and the “fold changes relative to vehicle control” value ([6]; protein YWHAE, HeLa) was 1.03.

With Nc1nc2[nH]cc(CCc3ccc(C(=O)N[C@@H](CCC(=O)O)C(=O)O)cc3)c2c(=O)[nH]1 [PTX, pemetrexed] the “fold changes relative to vehicle control” value [1] was 0.97, the “fold changes relative to vehicle control” value [2] was 0.83 and the “fold changes relative to vehicle control” value [3] was 0.92. The “fold changes relative to vehicle control” value [4] was 0.99, the “fold changes relative to vehicle control” value [5] was 0.99 and the “fold changes relative to vehicle control” value [6] was 1.1.

In the case of Nc1nc2c(c(=O)[nH]1)N(C=O)C(CNc1ccc(C(=O)N[C@@H](CCC(=O)O)C(=O)O)cc1)CN2 (stereo partly drawn) [LEU, leucovorin], the “fold changes relative to vehicle control” value ([1]; HeLa, captured protein RABGGTB) is reported as 1.01, the “fold changes relative to vehicle control” value ([2]; HeLa, protein CCNC) is reported as 1.13 and the “fold changes relative to vehicle control” value ([3]; protein XPO5, HeLa) is reported as 0.86. The “fold changes relative to vehicle control” value ([4]; HeLa, captured protein CSTF1) was 1, the “fold changes relative to vehicle control” value ([5]; HeLa, captured protein DYNC1H1) was 1.02 and the “fold changes relative to vehicle control” value ([6]; HeLa, protein YWHAE) was 1.01.

With CCCCCCOc1cccc(Cc2cnc(N)nc2N)c1 [compound 2] the “fold changes relative to vehicle control” value ([1]; protein RABGGTB, HeLa) was 1.01, the “fold changes relative to vehicle control” value ([2]; captured protein CCNC, HeLa) was 0.9 and the “fold changes relative to vehicle control” value ([3]; HeLa, protein XPO5) was 1.18. For the same compound, the “fold changes relative to vehicle control” value ([4]; HeLa, protein CSTF1) was 0.99, the “fold changes relative to vehicle control” value ([5]; protein DYNC1H1, HeLa) was 1.03 and the “fold changes relative to vehicle control” value ([6]; protein YWHAE, HeLa) was 2.

In the case of NCCOCCOCC(=O)Nc1nc2ncc(CNc3ccc(C(=O)NC(CCC(=O)O)C(=O)O)cc3)nc2c(=O)[nH]1 (stereo not drawn) [compound 6], the “fold changes relative to vehicle control” value ([1]; HeLa, captured protein RABGGTB) is reported as 0.91, the “fold changes relative to vehicle control” value ([2]; HeLa, protein CCNC) is reported as 0.94 and the “fold changes relative to vehicle control” value ([3]; protein XPO5, HeLa) is reported as 1.02. The “fold changes relative to vehicle control” value ([4]; HeLa, captured protein CSTF1) was 0.88, the “fold changes relative to vehicle control” value ([5]; HeLa, captured protein DYNC1H1) was 1.11 and the “fold changes relative to vehicle control” value ([6]; HeLa, protein YWHAE) was 1.17.

CCCCCCOc1ccc(Cc2cnc(N)nc2N)cc1 [compound 1] was tested, and the “fold changes relative to vehicle control” value ([1]; protein RABGGTB, HeLa) was 1.07, the “fold changes relative to vehicle control” value ([2]; captured protein CCNC, HeLa) was 0.89 and the “fold changes relative to vehicle control” value ([3]; HeLa, protein XPO5) was 1. For the same compound, the “fold changes relative to vehicle control” value ([4]; HeLa, protein CSTF1) was 1.05, the “fold changes relative to vehicle control” value ([5]; protein DYNC1H1, HeLa) was 1 and the “fold changes relative to vehicle control” value ([6]; protein YWHAE, HeLa) was 1.37.

In the case of NCCCNc1ccc(C(=O)NC(CCC(=O)O)C(=O)O)cc1 (stereo not drawn) [compound 7], the “fold changes relative to vehicle control” value ([1]; HeLa, captured protein RABGGTB) is reported as 1.03, the “fold changes relative to vehicle control” value ([2]; HeLa, protein CCNC) is reported as 0.95 and the “fold changes relative to vehicle control” value ([3]; protein XPO5, HeLa) is reported as 0.98. For the same compound, the “fold changes relative to vehicle control” value ([4]; HeLa, captured protein CSTF1) was 1.02, the “fold changes relative to vehicle control” value ([5]; HeLa, captured protein DYNC1H1) was 1.1 and the “fold changes relative to vehicle control” value ([6]; HeLa, protein YWHAE) was 1.03.

Reference: PMC6199744, “Development of Chemical Proteomics for the Folateome and Analysis of the Kinetoplastid Folateome” (ACS Infectious Diseases, 2018)
